Data set [1] in a line: Solubility of synthesized polypeptides.
Description: Twenty-four polypeptides contained in the alcalase-digested, reverse phase column fraction of the basic fraction were synthesized in yields of 10 to 300 mg in the same manner as described in Example 7 and their characteristic values were determined.
The target of data set [2] is T1, xanthine oxidase (XO) of cow's milk (Bos taurus, UniProt P80457).
T1 construct: xanthine oxidase (XO) of cow's milk (from Wako Pure Chemical); purchased Wako Pure Chemical; host or cells: cow's milk (natural source)
The experiment in a line: Uric acid synthetase inhibitory activity of peptides that are part of SEQ ID No. 1. It is filed as biochemical. As to conditions: 15 μM xanthine, 50 mM tris-HCl pH 7.4, 37° C., 10 minutes. As to the method:
Each of the peptides synthesized was added to 1 ml of a 50 mM tris-HCl buffer (pH 7.4) containing 15 μM xanthine as an enzyme substrate to prepare a reaction system. To the reaction system was added 0.1 unit (containing 100 μl of 25 units/25 ml enzyme solution) of xanthine oxidase (XO) of cow's milk (from Wako Pure Chemical), followed by allowing the system to react at 37° C. for 10 minutes. The amount of uric acid produced from xanthine by the action of xanthine oxidase was evaluated in terms of changes in optical density (OD, at 292 nm), from which the enzyme activity was calculated from formula previously given.

The target in data set [3] is T2, xanthine oxidase (XO) from butter milk (Bos taurus, UniProt P80457).
T2 construct: xanthine oxidase (XO) from butter milk (from Wako Pure Chemical); purchased Wako Pure Chemical; host or cells: butter milk (natural source)
The experiment in a line: Uric acid synthetase inhibitory activity of polypeptides (YINY, YNL, GYL, INF). It is filed as biochemical. As to conditions: 15 μM xanthine, pH 7.4, 37° C., 10 minutes. As to the method: A polypeptide having SEQ ID No. 2 (YINY), which is contained in the enzyme-digested reverse-phase column fraction of the basic fraction of a shark cartilage extract, was synthesized in the same manner as in Example 7 and added to 200 μl of a 50 mM tris-HCl buffer (pH 7.4) containing 15 μM xanthine as an enzyme substrate to prepare a reaction system. To the reaction system was added 0.1 unit (containing 1 μl of 10 units/100 μl enzyme solution) of xanthine oxidase (XO) from butter milk (from Wako Pure Chemical), followed by allowing the system to react at 37° C. for 10 minutes. The amount of uric acid produced from xanthine by the action of xanthine oxidase was evaluated in terms of changes in optical density (OD, at 292 nm), from which the enzyme activity was calculated from formula previously given.
Polypeptides YNL, GYL, and INF which are contained in the enzyme-digested reverse-phase column fraction of the basic fraction of a shark cartilage extract were synthesized in the same manner as in Example 7 and added to 200 μl of a 50 mM tris-HCl buffer (pH 7.4) containing 15 μM xanthine as an enzyme substrate to prepare a reaction system. […] The amount of uric acid produced from xanthine by the action of xanthine oxidase was evaluated in terms of changes in optical density (OD, at 292 nm), from which the enzyme activity was calculated from formula previously given. […]

Residues, ends and D or L forms follow the SMILES beside them. No end group written: not given here.

T1 sequence (P80457 whole entry): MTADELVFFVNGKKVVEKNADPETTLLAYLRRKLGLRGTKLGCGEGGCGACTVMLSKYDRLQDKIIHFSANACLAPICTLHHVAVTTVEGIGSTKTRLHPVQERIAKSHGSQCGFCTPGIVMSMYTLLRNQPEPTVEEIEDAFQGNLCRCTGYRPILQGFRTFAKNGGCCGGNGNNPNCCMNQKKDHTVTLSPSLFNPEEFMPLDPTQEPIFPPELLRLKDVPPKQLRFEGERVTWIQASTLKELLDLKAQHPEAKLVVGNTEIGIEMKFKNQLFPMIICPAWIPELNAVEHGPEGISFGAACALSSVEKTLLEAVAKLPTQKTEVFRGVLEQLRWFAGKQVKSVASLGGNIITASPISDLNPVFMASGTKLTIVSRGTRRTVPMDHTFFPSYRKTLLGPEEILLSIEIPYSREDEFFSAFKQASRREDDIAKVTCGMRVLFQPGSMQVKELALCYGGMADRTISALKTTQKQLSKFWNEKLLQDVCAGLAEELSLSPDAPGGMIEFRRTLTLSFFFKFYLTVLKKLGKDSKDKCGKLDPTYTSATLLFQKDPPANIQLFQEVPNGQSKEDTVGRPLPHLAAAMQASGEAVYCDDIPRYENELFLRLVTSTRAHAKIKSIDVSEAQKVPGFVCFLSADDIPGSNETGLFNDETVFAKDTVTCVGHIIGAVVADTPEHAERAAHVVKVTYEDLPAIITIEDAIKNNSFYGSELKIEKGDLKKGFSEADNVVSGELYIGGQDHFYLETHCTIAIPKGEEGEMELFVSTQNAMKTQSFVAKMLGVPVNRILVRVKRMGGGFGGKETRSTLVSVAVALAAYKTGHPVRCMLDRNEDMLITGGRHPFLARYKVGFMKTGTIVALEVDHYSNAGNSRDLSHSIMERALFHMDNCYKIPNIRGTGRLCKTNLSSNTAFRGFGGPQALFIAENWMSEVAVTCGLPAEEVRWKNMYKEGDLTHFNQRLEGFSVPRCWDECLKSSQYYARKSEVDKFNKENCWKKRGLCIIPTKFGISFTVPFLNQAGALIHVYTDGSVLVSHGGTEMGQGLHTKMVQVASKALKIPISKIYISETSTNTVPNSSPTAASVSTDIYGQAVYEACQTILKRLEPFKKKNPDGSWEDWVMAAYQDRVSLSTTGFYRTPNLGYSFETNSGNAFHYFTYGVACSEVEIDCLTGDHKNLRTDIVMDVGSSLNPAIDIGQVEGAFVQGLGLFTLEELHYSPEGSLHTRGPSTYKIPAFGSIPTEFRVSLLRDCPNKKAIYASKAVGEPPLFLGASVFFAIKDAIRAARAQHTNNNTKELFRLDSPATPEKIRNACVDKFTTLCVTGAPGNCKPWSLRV
T2 sequence (P80457 whole entry): as above

In turn, `NC(=O)CC[C@H](NC(=O)[C@H](Cc1c[nH]c2ccccc12)NC(=O)[C@H](CC(N)=O)NC(=O)[C@@H](N)CO)C(=O)O` [Ser-Asn-Trp-Gln] (H-SNWQ-OH; N-terminus and C-terminus assumed) came in with a Solubility in data set [1] (in water (H2O)) of 1 mg/ml in H2O.

In data set [1] (in water (H2O)), DFWRY [Asp-Phe-Trp-Arg-Tyr] returned a Solubility of 1 mg/ml in water.

In data set [1] (in water (H2O)), “SPPYWPY [SPPYWPY, Ser-Pro-Pro-Tyr-Trp-Pro-Tyr]” registered a Solubility of 1 mg/ml in water.

`CC(C)C[C@H](NC(=O)[C@H](Cc1ccccc1)NC(=O)CN)C(=O)O` [Gly-Phe-Leu] (H-Gly-Phe-Leu-OH; N-terminus and C-terminus assumed): the Solubility in data set [1] (in 10% Acetonitrile in water) is reported as 1 mg/ml in 10%.

Regarding `N=C(N)NCCC[C@H](N)C(=O)N[C@@H](Cc1ccc(O)cc1)C(=O)N[C@@H](Cc1ccccc1)C(=O)O` [Arg-Tyr-Phe] (H-Arg-Tyr-Phe-OH; N-terminus and C-terminus assumed), the Solubility in data set [1] (in water (H2O)) amounted to 1 mg/ml in H2O.

`CC(C)[C@H](N)C(=O)N[C@@H](CCC(=O)O)C(=O)N[C@@H](Cc1ccc(O)cc1)C(=O)N[C@@H](Cc1ccccc1)C(=O)O` [Val-Gln-Tyr-Phe] gave a Solubility in data set [1] (in water (H2O)) of 1 mg/ml in water.

Compound `CC(C)C[C@H](NC(=O)[C@H](Cc1ccc(O)cc1)NC(=O)CN)C(=O)O` [GYL, Gly-Tyr-Leu] (H-Gly-Tyr-Leu-OH; N-terminus and C-terminus assumed) came in with a Solubility in data set [1] (in water (H2O)) of 1 mg/ml in H2O.

As to `CC(C)C[C@H](N)C(=O)N[C@@H](CC(=O)O)C(=O)O` [LD] (H-Leu-Asp-OH; N-terminus and C-terminus assumed), the “xanthine oxidase activity in system containing the peptide” value in data set [2] is reported as “inhibited”.

In data set [1] (in water (H2O)), `CC(C)C[C@H](N)C(=O)N[C@@H](Cc1ccccc1)C(=O)O` [Leu-Phe] (H-Leu-Phe-OH; N-terminus and C-terminus assumed) gave a Solubility of 1 mg/ml in H2O.

For `CC[C@H](C)[C@H](NC(=O)[C@@H](N)Cc1ccc(O)cc1)C(=O)N[C@@H](CC(N)=O)C(=O)N[C@@H](Cc1ccc(O)cc1)C(=O)O` [YINY, Try-Ile-Asn-Tyr] (H-YINY-OH; N-terminus and C-terminus assumed), the “xanthine oxidase activity in system containing the polypeptide” value in data set [3] is given as “inhibited”. This compound also showed a Solubility in data set [1] (in 5% NH4OH with H2O) of 1 mg/ml in 5% NH4OH.

Compound `CC(C)C[C@H](NC(=O)[C@@H](N)CO)C(=O)O` [Ser-Leu] (H-Ser-Leu-OH; N-terminus and C-terminus assumed) gave a Solubility in data set [1] (in water (H2O)) of 1 mg/ml in water.

With `CC[C@H](C)[C@H](N)C(=O)N[C@@H](CC(N)=O)C(=O)N[C@@H](Cc1ccccc1)C(=O)O` [INF, Ile-Asn-Phe] (H-Ile-Asn-Phe-OH; N-terminus and C-terminus assumed), the Solubility in data set [1] (in water (H2O)) came to 1 mg/ml in H2O.

The compound `CC[C@H](C)[C@H](N)C(=O)N[C@@H](Cc1ccc(O)cc1)C(=O)N[C@@H](CC(C)C)C(=O)O` [Ile-Tyr-Leu] (H-Ile-Tyr-Leu-OH; N-terminus and C-terminus assumed) had a Solubility in data set [1] (in 10% Acetonitrile in water) of 1 mg/ml in 10% in.

For the compound `CC[C@H](C)[C@H](N)C(=O)N[C@@H](CC(N)=O)C(=O)N[C@@H](Cc1ccc(O)cc1)C(=O)O` [Ile-Asn-Tyr] (H-Ile-Asn-Tyr-OH; N-terminus and C-terminus assumed), in data set [1] (in 5% NH4OH with H2O), the Solubility worked out at 1 mg/ml in 5% NH4OH.

Turning to `CC(C)C[C@H](NC(=O)[C@H](CC(N)=O)NC(=O)[C@@H](N)Cc1ccc(O)cc1)C(=O)O` [YNL, Tyr-Asn-Leu] (H-Tyr-Asn-Leu-OH; N-terminus and C-terminus assumed), the Solubility in data set [1] (in water (H2O)) is listed as 1 mg/ml in H2O.

For the compound `CC(C)[C@H](N)C(=O)N[C@@H](Cc1ccc(O)cc1)C(=O)N[C@@H](CCC(N)=O)C(=O)O` [Val-Tyr-Gln] (H-Val-Tyr-Gln-OH; N-terminus and C-terminus assumed), the Solubility in data set [1] (in water (H2O)) is 1 mg/ml in H2O.

For `CC(C)C[C@H](N)C(=O)N[C@@H](CC(=O)O)C(=O)N[C@@H](CC(N)=O)C(=O)N[C@@H](Cc1ccc(O)cc1)C(=O)O` [LDNY, Leu-Asp-Asn-Tyr] (H-LDNY-OH; N-terminus and C-terminus assumed), the “xanthine oxidase activity in system containing the peptide” value in data set [2] is given as “inhibited”. This compound displayed a Solubility in data set [1] (in water (H2O)) of 1 mg/ml in water.

On to `CC(C)C[C@H](NC(=O)[C@@H](N)Cc1ccc(O)cc1)C(=O)N[C@@H](CC(=O)O)C(=O)N[C@@H](CC(N)=O)C(=O)O` [YLDN, Tyr-Leu-Asp-Asn] (H-YLDN-OH; N-terminus and C-terminus assumed), for which the “xanthine oxidase activity in system containing the peptide” value in data set [2] is “inhibited”. This compound also yielded a Solubility in data set [1] (in water (H2O)) of 1 mg/ml in water.

Consider `NC(=O)C[C@H](NC(=O)[C@@H](N)CC(=O)O)C(=O)O` [DN] (H-Asp-Asn-OH; N-terminus and C-terminus assumed), for which the “xanthine oxidase activity in system containing the peptide” value in data set [2] is “inhibited”.

Turning to `CC[C@H](C)[C@H](NC(=O)[C@@H](N)CO)C(=O)N[C@@H](Cc1ccc(O)cc1)C(=O)N[C@@H](CC(=O)O)C(=O)O` [Ser-Ile-Tyr-Asp] (H-SIYD-OH; N-terminus and C-terminus assumed), in data set [1] (in 5% NH4OH with H2O), the Solubility is 1 mg/ml in 5% NH4OH.

On to `N[C@@H](Cc1ccccc1)C(=O)N[C@@H](Cc1ccc(O)cc1)C(=O)O` [Phe-Tyr] (H-Phe-Tyr-OH; N-terminus and C-terminus assumed), for which the Solubility in data set [1] (in water (H2O)) was 1 mg/ml in H2O.

Take YLDNY [YLDNY, Tyr-Leu-Asp-Asn-Tyr]: the Solubility in data set [1] (in 10% Acetonitrile in water) was found to be 1 mg/ml in 10%.

The record behind these values is patent US7951782B2, “Composition effective to prevent or treat adult disease” (Maruha Nichiro Seafoods, Inc, priority 2005, dated 2011).
